Reference: the supplement of paper PMC10307832

compound: CCOC1=CC=CC=C1N=NC2=C(NN(C2=O)C3=NC(=CS3)C4=CC=CC=C4)C [BAM7] + O=C(CCCCCCC(=O)Nc1ccccc1)NO [Vorinostat] (partner 1 µM); assay: relative viability (nuclei count vs DMSO), 5 days (fraction); higher = more cells survive; details: first compound 0.5 µM
How it was run: (§1)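 Lung cancer cell lines were seeded in 1536-well plates and dosed by pin tool the next day, with either a single drug or a fixed anchor-drug dose combined with five library-drug doses (not always all listed) spaced in √10 steps. Five days later, one step fixed the cells and stained their nuclei (final 0.05% Triton X-100, 1% formaldehyde, 1 ug/ml Hoechst), and nuclei were counted on 4× images. Relative viability is the nuclei count in treated wells divided by the count in vehicle wells, and each value is the median of duplicate plates.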

Row | Cell Line | relative viability
1 | HCC-366 | 0.301
2 | NCI-H1666 | 1.08
3 | NCI-H596 | 0.646
4 | LK-2 | 0.341
5 | NCI-H2087 | 0.852
6 | NCI-H2342 | 0.72
7 | SK-MES-1 | 1.04
8 | H3255 | 0.819
9 | COR-L23 | 0.434
10 | COR-L 105 | 0.889
11 | IA-LM | 0.874
12 | LOU-NH91 | 0.899
13 | ChaGo-K-1 | 0.627
14 | NCI-H2170 | 0.842
15 | NCI-H2405 | 1.02
16 | HOP-62 | 0.682
17 | HCC-44 | 1.02
18 | LU99A | 0.512
19 | BEN | 0.573
20 | HARA | 0.333
21 | NCI-H1648 | 0.283
22 | HCC-78 | 0.382
23 | NCI-H322M | 0.884
24 | LCLC-97TM1 | 0.941
25 | NCI-H2009 | 0.67
26 | A-427 | 0.829

same assay, conditions: first compound 5 µM

Row | Cell Line | relative viability
27 | NCI-H522 | 0.851
28 | NCI-H727 | 1.09
29 | NCI-H1650 | 0.449
30 | NCI-H1993 | 0.765
31 | SW 1573 | 0.735
32 | NCI-H838 | 0.776
33 | LCLC-103H | 0.804
34 | NCI-H520 | 0.866
35 | NCI-H2126 | 0.597
36 | EMC-BAC-2 | 0.485
37 | NCI-H2085 | 0.654
38 | HCC-366 | 0.28
39 | NCI-H1666 | 0.944
40 | NCI-H596 | 0.716
41 | LK-2 | 0.346
42 | NCI-H2087 | 0.736
43 | NCI-H2342 | 0.736
44 | SK-MES-1 | 1.06
45 | H3255 | 0.763

Row | Cell Line | relative viability
46 | COR-L23 | 0.379
47 | COR-L 105 | 0.952
48 | IA-LM | 1.03
49 | LOU-NH91 | 0.936
50 | ChaGo-K-1 | 0.787
51 | NCI-H2170 | 0.731
52 | NCI-H2405 | 1.06
53 | HOP-62 | 0.661
54 | HCC-44 | 1.11
55 | SW 900 | 0.461
56 | LU99A | 0.54
57 | BEN | 0.61
58 | HARA | 0.767
59 | NCI-H1648 | 0.6
60 | HCC-78 | 0.455
61 | NCI-H322M | 0.868
62 | LCLC-97TM1 | 0.878
63 | NCI-H2009 | 0.755
64 | A-427 | 0.876

same assay, conditions: first compound 15.81 µM

Row | Cell Line | relative viability
65 | NCI-H522 | 0.963
66 | NCI-H727 | 0.942
67 | NCI-H1650 | 0.428
68 | NCI-H1993 | 0.71
69 | SW 1573 | 1.06
70 | NCI-H838 | 0.723
71 | LCLC-103H | 0.764
72 | NCI-H520 | 0.702
73 | NCI-H2126 | 0.635
74 | EMC-BAC-2 | 0.658
75 | NCI-H2085 | 0.74
76 | HCC-366 | 0.356
77 | NCI-H1666 | 1.01
78 | NCI-H596 | 0.558
79 | LK-2 | 0.343
80 | NCI-H2087 | 0.489
81 | NCI-H2342 | 0.709
82 | SK-MES-1 | 1.05

Row | Cell Line | relative viability
83 | H3255 | 0.733
84 | COR-L23 | 0.433
85 | COR-L 105 | 0.895
86 | IA-LM | 0.389
87 | LOU-NH91 | 0.917
88 | ChaGo-K-1 | 0.701
89 | NCI-H2170 | 0.651
90 | NCI-H2405 | 1.18
91 | HOP-62 | 0.591
92 | HCC-44 | 1.04
93 | LU99A | 0.488
94 | BEN | 0.523
95 | HARA | 0.304
96 | NCI-H1648 | 0.408
97 | HCC-78 | 0.436
98 | NCI-H322M | 1.05
99 | NCI-H2009 | 0.706
100 | A-427 | 0.834

same assay, conditions: first compound 50 µM

Row | Cell Line | relative viability
101 | NCI-H522 | 0.977
102 | NCI-H727 | 0.839
103 | NCI-H1650 | 0.571
104 | NCI-H1993 | 0.696
105 | SW 1573 | 0.606
106 | NCI-H838 | 0.673
107 | LCLC-103H | 0.781
108 | NCI-H520 | 0.718
109 | NCI-H2126 | 0.664
110 | EMC-BAC-2 | 0.483
111 | NCI-H2085 | 0.822
112 | HCC-366 | 0.344
113 | NCI-H1666 | 1.05
114 | NCI-H596 | 0.7
115 | LK-2 | 0.353
116 | NCI-H2087 | 0.475
117 | NCI-H2342 | 0.8
118 | SK-MES-1 | 1.04
119 | H3255 | 0.811

Row | Cell Line | relative viability
120 | COR-L23 | 0.52
121 | COR-L 105 | 0.906
122 | IA-LM | 0.553
123 | LOU-NH91 | 0.903
124 | ChaGo-K-1 | 0.742
125 | NCI-H2170 | 0.601
126 | NCI-H2405 | 0.917
127 | HOP-62 | 0.694
128 | HCC-44 | 1.07
129 | SW 900 | 0.589
130 | LU99A | 0.553
131 | BEN | 0.544
132 | HARA | 0.439
133 | NCI-H1648 | 0.348
134 | HCC-78 | 0.459
135 | NCI-H322M | 0.913
136 | LCLC-97TM1 | 0.763
137 | NCI-H2009 | 0.693
138 | A-427 | 0.852

compound: CCn1c(-c2nonc2N)nc2c(C#CC(C)(C)O)ncc(OC[C@H]3CCCNC3)c21 + Cc1cc(Nc2cc(N3CCN(C)CC3)nc(Sc3ccc(NC(=O)C4CC4)cc3)n2)n[nH]1 [Tozasertib] (partner 0.1 µM); assay: as above; details: first compound 0.01 µM
How it was run: as §1

Row | Cell Line | relative viability
139 | NCI-H522 | 0.56
140 | NCI-H1623 | 0.433
141 | NCI-H727 | 0.605
142 | NCI-H1650 | 0.398
143 | NCI-H1993 | 0.585
144 | SW 1573 | 0.175
145 | NCI-H838 | 0.276
146 | LCLC-103H | 0.41
147 | NCI-H520 | 0.41
148 | NCI-H2126 | 0.829
149 | EMC-BAC-2 | 0.297
150 | NCI-H2085 | 0.81
151 | HCC-366 | 0.135
152 | NCI-H1666 | 0.625
153 | NCI-H596 | 1.07
154 | LK-2 | 0.165
155 | NCI-H2087 | 0.264
156 | NCI-H2342 | 0.521
157 | SK-MES-1 | 0.858
158 | H3255 | 0.549
